# “Also recorded” adds a separate entry of the source.
# Tests used:
# [1] = system: arterially perfused rabbit atrial wedge preparations; assay: Atrial effective refractory period (ERP) and loss of excitation in arterially perfused rabbit atrial wedge preparations; settings: for atrial preparations that lost excitation, drug alone: dofetilide (10 nM) or mexiletine (30 μM) used alone; for effect on atrial ERP, drug alone: each drug alone (FIG. 2)
# Description: (§1) Rabbits (New Zealand White) of either sex, weighing 2.0-2.8 kg were injected with heparin (800 U/kg) via an ear vein and anesthetized by intramuscular injection of xylazine (5 mg/kg) and intravenous administration of ketamine HCl (30-35 mg/kg, i.v.). The chest was opened via a left thoracotomy, and the heart was excised and placed in a cardioplegic solution consisting of cold (4° C.) normal Tyrode's solution.
# (§2) Surgical preparation of the rabbit right or left atrial wedge was essentially similar to that in Preclinical assessment of drug-induced proarrhythmias: role of the arterially perfused rabbit left ventricular wedge preparation,^18 herein incorporated by reference. Briefly, the atrial preparation was dissected from the rabbit heart and cannulated via a coronary artery branch, either from the right coronary artery (the right atrial wedge) or the left coronary artery (the left atrial wedge), and perfused with a cardioplegic solution. Similarly, the left ventricular wedge preparation was dissected from the rabbit heart and arterially cannulated via a branch of left coronary artery. The atrial or ventricular wedge preparation was then placed in a small tissue bath and arterially perfused with Tyrode's solution containing 4.0 mM K^+ buffered with 95% O2 and 5% CO2 at a temperature of 35.7±0.1° C. The preparations were paced at basic cycle lengths (BCL) of 300, 500, 1000 and 2000 ms.
# Atrial effective refractory period (ERP) was measured by introducing an extrastimulus (S2) repeatedly every 10 pulses (S1) at two folds of the pacing threshold. […] In the preparations that lost excitation intermittently after drug interventions, the ERP was then considered to be equal to the S1-S1 interval.
# [2] = system: arterially-perfused rabbit atrial wedge preparations; assay: Induction of atrial fibrillation by programming stimulation in arterially-perfused rabbit atrial wedge preparations; settings: for suppression of induction of atrial fibrillation: programming stimulation, concentrations of Table 1
# Description: as §1, §2
# Atrial fibrillation was induced by programming stimulation using single or double extrastimuli (S2 and S3). Basic cycle lengths (S1 and S1) of 1000 and 500 ms were used for induction of atrial fibrillation.
# [3] = system: arterially-perfused rabbit left ventricular wedge preparations; assay: Dofetilide-induced EAD, R-on-T extrasystoles and TdP in arterially-perfused rabbit left ventricular wedge preparations
# Description: as §1, §2
# Two extracellular silver/silver chloride electrodes were placed on the endocardial or epicardial surfaces to record bipolar atrial electrograms (EGM). A transmural ECG was recorded in the ventricular wedge preparation using two extracellular silver/silver chloride electrodes placed in the bath 0.5 to 1.5 cm from the epicardial and endocardial surfaces of the preparation (Epi: “+” pole). Transmembrane action potential was recorded from the endocardium or epicardium using the floating glass microelectrodes. Atrial action potential duration at 90% repolarization (APD90) was used for data analysis.
# Early afterdepolarization (EAD), EAD-dependent R-on-T extrasystoles and torsade de pointes (TdP) were induced by dofetilide in the rabbit left ventricular wedges which were paced at a BCL of 2000 ms and perfused with Tyrode's solution containing 3 mM K^+, which is equivalent to hypokalemia in humans. Lower K^+ potentiated the effect of dofetilide to induced EAD, R-on-T and TdP. The K^+ concentration in Tyrode's solution remained the same when the effect of mexiletine on dofetilide-induced EAD, R-on-T and TdP was examined.
# [4] = literature refs 19-21; cited from earlier work
# [5] = system: arterially perfused rabbit atrial wedge preparations; assay: Atrial action potential duration (APD90) in arterially perfused rabbit atrial wedge preparations; settings: dofetilide 3 nM and 10 nM; BCL 1000 ms or 500 ms (FIG. 1)
# Description: as §1
# Surgical preparation of the rabbit right or left atrial wedge was essentially similar to that in Preclinical assessment of drug-induced proarrhythmias: role of the arterially perfused rabbit left ventricular wedge preparation,^18 herein incorporated by reference. […]
# Two extracellular silver/silver chloride electrodes were placed on the endocardial or epicardial surfaces to record bipolar atrial electrograms (EGM). A transmural ECG was recorded in the ventricular wedge preparation using two extracellular silver/silver chloride electrodes placed in the bath 0.5 to 1.5 cm from the epicardial and endocardial surfaces of the preparation (Epi: “+” pole). Transmembrane action potential was recorded from the endocardium or epicardium using the floating glass microelectrodes. […]
# [6] = dofetilide 10 nM, BCL 2000 ms, 3 mM K+
Compound,"atrial preparations that lost excitation, drug alone [1]","effect on atrial ERP, drug alone [1]",Induced Atrial Fibrillation (incidence) ([2]; mexiletine 10 μM),suppression of induction of atrial fibrillation [2],"reversibility of the effect on dofetilide-induced EAD, R-on-T and TdP ([3]; after removal of mexiletine EAD, R-on-T reoccurred)","effect on EAD, R-on-T and TdP induced by 10 nM dofetilide ([3]; mexiletine 10 μM, low (3 mM) K+ (FIG. 6))",therapeutical plasma concentration in humans [4],effect on atrial APD90 [5],Induced Atrial Fibrillation (incidence) ([2]; dofetilide 3 nM),"effect on atrial fibrillation readily induced by single stimuli ([2]; one atrial wedge preparation, dofetilide alone 10 nM and 30 nM (FIG. 5))","EAD (incidence) [3, 6]","R-on-T (incidence) [3, 6]","TdP (incidence) [3, 6]"
"Cc1cccc(C)c1OCC(C)N (racemic) [mexiletine, (RS)-1-(2,6-dimethylphenoxy)propan-2-amine]",none,mildly to moderately prolonged,4 of 4 preparations,not,washable,effectively abolished,~10 µM,,,,,,
"CN(CCOc1ccc(NS(C)(=O)=O)cc1)CCc1ccc(NS(C)(=O)=O)cc1 [dofetilide, N-[4-(2-{[2-(4-methanesulfonamidophenoxy)ethyl](methyl)amino}ethyl)phenyl] methanesulfonamide]",none,mildly to moderately prolonged,,partially suppressed,,,~0.003 µM,significantly increased,3 of 6 preparations,failed to suppress induction of atrial fibrillation and premature beats; also recorded: reduced only duration and incidences of atrial fibrillation,7 of 7,5 of 7,1 of 7
